The target in assay [1] is BuChE (Homo sapiens, UniProt P06276). The assay is described as follows: biochemical. How it is done: (§1) 3.5. Acetylcholinesterase Activity Assay Protocol
(§2) The inhibition of AChE and BChE was determined using a method described earlier.
(§3) Briefly, the stock solutions (1mg/mL) of test analogues were prepared using DMSO. The working solutions (1–100μg/mL) were prepared using serial dilutions (a serial dilution means a series of diluted solutions, e.g., 0.1mg/mL, 0.2mg/mL and so on; the solutions contained 5% DMSO and 95% water). The various concentrations of test compounds (10μL) were pre-incubated with sodium phosphate buffer (0.1 M; pH 8.0; 150μL) and AChE (0.1 U/mL; 20μL) for 15 min at 25°C. The reaction was initiated via the addition of DTNB (1 mM; 10μL) and […] (1 mM; 10 μL). The mixture of reaction was mixed using a cyclomixer and incubated for […]
(§4) wavelength against the blank reading containing 10μL DMSO instead of the test compound (the solution contained 5% DMSO and 95% water). Utilizing the formula given in Equation (1), the percentage of inhibition was computed, and the IC50 was determined under the positive control […]
(§5) % Inhibition = (Absorbance of control—Absorbance of compound)/Absorbance of control × 100 […]
(§6) which was calculated by constructing a non-linear regression graph between the percentages of inhibition vs. concentration, using Graph Pad prism software (version 5.3)(accessed on 5 August […]

Assay [2] addresses AChE (Homo sapiens, UniProt P22303). The assay can be described thus: biochemical. How it is done: as §1, §2, §3, §4, §5, §6
Where [3] appears, read: in vitro enzyme inhibition, read-out: BuChE IC50 (µM ± SEM).
Setting [4] is: in vitro enzyme inhibition, 25°C, pH 8.0, read-out: AChE IC50 (µM ± SEM).

The values below come from PMC9657098, “Synthesis, In Vitro Biological Evaluation and In Silico Molecular Docking Studies of Indole Based Thiadiazole Derivatives as Dual Inhibitor of Acetylcholinesterase and Butyrylchloinesterase” (Molecules, 2022).

Each structure is given as a SMILES string. Read-outs that look alike come from different tables or passages of the source.

Sequence of BuChE (P06276 29-602): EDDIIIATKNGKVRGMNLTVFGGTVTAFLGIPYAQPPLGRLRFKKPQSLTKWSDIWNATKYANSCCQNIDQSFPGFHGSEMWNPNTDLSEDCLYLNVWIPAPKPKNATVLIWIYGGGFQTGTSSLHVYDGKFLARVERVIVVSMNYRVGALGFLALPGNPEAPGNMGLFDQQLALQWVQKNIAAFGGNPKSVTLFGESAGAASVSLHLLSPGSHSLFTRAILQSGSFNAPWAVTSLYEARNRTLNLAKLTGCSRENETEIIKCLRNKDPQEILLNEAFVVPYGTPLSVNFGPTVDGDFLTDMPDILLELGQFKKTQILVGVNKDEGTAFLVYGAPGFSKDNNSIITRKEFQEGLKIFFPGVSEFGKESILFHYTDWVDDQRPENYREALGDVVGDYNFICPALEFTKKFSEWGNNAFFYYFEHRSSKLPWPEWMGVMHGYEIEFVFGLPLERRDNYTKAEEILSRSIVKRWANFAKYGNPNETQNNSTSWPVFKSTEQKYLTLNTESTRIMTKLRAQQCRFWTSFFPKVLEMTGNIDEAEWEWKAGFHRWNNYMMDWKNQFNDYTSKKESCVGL
Sequence of AChE (P22303 32-614): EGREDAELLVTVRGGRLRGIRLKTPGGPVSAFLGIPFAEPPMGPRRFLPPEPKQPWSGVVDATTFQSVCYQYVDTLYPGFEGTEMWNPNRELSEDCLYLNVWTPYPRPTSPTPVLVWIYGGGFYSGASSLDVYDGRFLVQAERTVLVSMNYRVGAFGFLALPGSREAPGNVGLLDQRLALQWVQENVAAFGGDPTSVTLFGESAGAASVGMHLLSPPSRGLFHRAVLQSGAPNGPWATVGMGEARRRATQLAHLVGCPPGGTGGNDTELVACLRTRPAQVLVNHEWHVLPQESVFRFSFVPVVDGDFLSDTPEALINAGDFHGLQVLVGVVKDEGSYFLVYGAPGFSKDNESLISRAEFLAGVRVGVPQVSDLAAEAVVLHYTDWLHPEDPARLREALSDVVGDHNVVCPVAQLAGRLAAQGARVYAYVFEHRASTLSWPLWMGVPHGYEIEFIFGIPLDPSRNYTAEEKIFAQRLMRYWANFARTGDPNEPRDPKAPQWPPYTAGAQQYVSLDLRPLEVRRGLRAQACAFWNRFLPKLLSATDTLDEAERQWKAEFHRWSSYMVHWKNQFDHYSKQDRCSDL

As a reminder, the IC50 is the concentration at which inhibition is half-maximal. `O=[N+]([O-])c1cccc([N+](=O)[O-])c1Nc1nnc(Cc2cc3cc(Cl)ccc3[nH]2)s1` [Compound 4]: the results for the concentration for half-maximal inhibition (IC50) in assay [1] and in assay [2] were 5.4 ± 0.1 µM and 2.8 ± 0.1 µM, respectively.
As for `Cc1ccc(Nc2nnc(Cc3cc4cc(Cl)ccc4[nH]3)s2)cc1C` [Compound 5], the IC50 in assay [1] (setting [3]) worked out at 9.3 ± 0.1 µM; in assay [2] (setting [4]) it was 5.8 ± 0.2 µM.
As to `Cc1cccc(Nc2nnc(Cc3cc4cc(Cl)ccc4[nH]3)s2)c1C` [Compound 6], the concentration for half-maximal inhibition (IC50) in assay [1] (setting [3]) worked out at 10.9 ± 0.1 µM; in assay [2] (setting [4]), 8.7 ± 0.2 µM.
On to `Fc1ccc(Nc2nnc(Cc3cc4cc(Cl)ccc4[nH]3)s2)cc1` [Compound 8], for which the half-inhibitory concentration (IC50) in assay [1] (setting [3]) came out at 0.2 ± 0.1 µM; in assay [2] (read-out: IC50 for AchE (abstract)), 0.15 ± 0.05 µM.
On to `Fc1ccccc1Nc1nnc(Cc2cc3cc(Cl)ccc3[nH]2)s1` [Compound 9], for which the IC50 stood at 0.5 ± 0.05 µM in assay [1] (setting [3]) and 0.35 ± 0.05 µM in assay [2] (setting [4]).
As to `Fc1cccc(Nc2nnc(Cc3cc4cc(Cl)ccc4[nH]3)s2)c1` [Compound 10], the half-maximal inhibitory concentration (IC50) was 2.8 ± 0.1 µM in assay [1] (setting [3]) and 1.1 ± 0.1 µM in assay [2] (setting [4]).
On to `O=[N+]([O-])c1cc(Br)cc(Nc2nnc(Cc3cc4cc(Cl)ccc4[nH]3)s2)c1` [Compound 11], for which the IC50 was determined as 18.4 ± 0.3 µM in assay [1] (setting [3]) and 12.3 ± 0.2 µM in assay [2] (setting [4]).
With `COc1c(Nc2nnc(Cc3cc4cc(Cl)ccc4[nH]3)s2)cccc1[N+](=O)[O-]` [Compound 12], the IC50 in assay [1] (setting [3]) amounted to 19.2 ± 0.3 µM; in assay [2] (setting [4]) it was 14.7 ± 0.3 µM.
Taken in the same sequence, the figures for `COc1cc(Nc2nnc(Cc3cc4cc(Cl)ccc4[nH]3)s2)ccc1[N+](=O)[O-]` [Compound 13] were 25.3 ± 0.4 µM and 19.1 ± 0.3 µM.
For the molecule `FC(F)(F)c1ccc(Nc2nnc(Cc3cc4cc(Cl)ccc4[nH]3)s2)cc1Cl` [Compound 14], the values for the IC50 in assay [1] (setting [3]) and in assay [2] (setting [4]) were 2.6 ± 0.1 µM and 0.4 ± 0.05 µM, respectively.
Taken in the same sequence, the figures for `O=[N+]([O-])c1cc(Nc2nnc(Cc3cc4cc(Cl)ccc4[nH]3)s2)ccc1Br` [Compound 15] were 32.1 ± 0.1 µM and 22.2 ± 0.4 µM.
In the case of `O=[N+]([O-])c1ccc(Br)c(Nc2nnc(Cc3cc4cc(Cl)ccc4[nH]3)s2)c1` [Compound 16], the 50% inhibitory concentration (IC50) in assay [1] (setting [3]) was 34.3 ± 0.6 µM.
